Experimental data as given in patent US20230250096A1, “SUBSTITUTED PHENYL-1H-PYRROLO[2,3-c] PYRIDINE DERIVATIVES” (Janssen Pharmaceutica NV, priority 2021, published 2023).

Experiments:
[1] = target: T1, menin/MLL (terbium chelate-labeled menin, FITC-MBM1 peptide) (Homo sapiens, UniProt O00255, T541A); assay: Menin/MLL homogenous time-resolved fluorescence (HTRF) assay; type: binding; conditions: 30 min incubation
T1 construct: Menin (a.a 1-610-6xhis tag, 2.3 mg/mL in 20 mM Hepes)
T1 sequence (O00255 with tags, fused parts or gaps T541A): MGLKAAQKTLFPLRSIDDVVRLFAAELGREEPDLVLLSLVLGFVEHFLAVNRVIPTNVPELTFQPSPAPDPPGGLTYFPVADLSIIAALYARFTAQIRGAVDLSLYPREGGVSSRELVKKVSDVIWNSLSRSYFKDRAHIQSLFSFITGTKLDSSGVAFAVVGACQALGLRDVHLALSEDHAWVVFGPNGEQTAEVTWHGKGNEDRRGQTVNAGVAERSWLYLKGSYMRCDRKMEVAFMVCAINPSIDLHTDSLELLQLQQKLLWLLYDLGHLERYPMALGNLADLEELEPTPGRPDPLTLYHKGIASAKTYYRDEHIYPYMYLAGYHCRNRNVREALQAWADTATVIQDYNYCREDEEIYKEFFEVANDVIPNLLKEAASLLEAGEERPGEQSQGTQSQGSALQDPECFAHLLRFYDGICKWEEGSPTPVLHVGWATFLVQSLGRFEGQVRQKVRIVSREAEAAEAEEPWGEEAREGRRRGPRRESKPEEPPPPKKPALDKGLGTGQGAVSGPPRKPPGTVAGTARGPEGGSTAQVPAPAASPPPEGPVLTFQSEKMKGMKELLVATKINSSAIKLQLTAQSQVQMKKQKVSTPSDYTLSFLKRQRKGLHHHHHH
In short: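 Terbium-labeled menin (a.a. 1-610, His-tagged; […]) pre-incubated 30 min with compound, then 75 nM FITC-MBM1 peptide added for 15 min at ambient temperature in Tris pH 7.5 buffer, 0.5% DMSO. HTRF 520/490 nm ratio read; IC50 from 11-point four-fold titrations, typically from 10 μM.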

MEIS1 mRNA expression = MEIS1 mRNA expression assay (Quantigene Singleplex) in MOLM14 cells; type: cell-based, human; conditions: 48 hours incubation
In short: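 MOLM14 cells, 3,750/well, exposed to increasing compound concentrations for 48 h. MEIS1 mRNA measured by QuantiGene Singleplex branched-DNA hybridization (lysis 45 min, hybridization 18–22 h, both 55 °C), normalized to RPL28. IC50 fitted to background-corrected fold change versus DMSO.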

| Compound | IC50 [1] [nM] | IC50 (MEIS1 mRNA expression) [nM] | IC50 (MEIS1 mRNA expression; Homo sapiens, MOLM-14, 48 h) [nM] |
| --- | --- | --- | --- |
| Cc1cncc2c1c(CC1CCN(CC3CCN(C(=O)CC4CS(=O)(=O)C4)CC3)C1)cn2-c1ccc(F)cc1C(=O)N(C)C(C)C (single isomer, unassigned) [Compound 108] | 0.161 | 153 | – |
| CC(=O)N[C@@H](C)CN1CC[C@H](Cc2cn(-c3ccc(F)cc3C(=O)N(C)C(C)C)c3cncc(C)c23)C1 (single isomer, unassigned) [Compound 119b] | 0.569 | – | > 1000 |
| Cc1cncc2c1c(C[C@H]1CCN(CC3CCS(=O)(=O)CC3)C1)cn2-c1ccc(F)cc1C(=O)N(C)C(C)C (single isomer, unassigned) [Compound 124] | 0.156 | – | 114 |
| CN=[S@@](=O)(c1cc(F)ccc1-n1cc(C[C@@H]2CCN(CC3CCN(C(C)=O)CC3)C2)c2c(C)cncc21)C(C)C (single isomer, unassigned) [Compound 128c] | 1.01 | – | ~487 |
| Cc1cncc2c1c(CC1CNC(CC3CCOCC3)C1)cn2-c1ccc(F)cc1C(=O)N(C)C(C)C (single isomer, unassigned) [Compound 134b] | 0.988 | > 1000 | – |
| Cc1cncc2c1c(CC1CNC(CC3CCOCC3)C1)cn2-c1ccc(F)cc1C(=O)N(C)C(C)C (single isomer, unassigned) [Compound 134c] | 0.073 | 119 | – |
| Cc1cncc2c1c(CC1CNC(CC3CCOCC3)C1)cn2-c1ccc(F)cc1C(=O)N(C)C(C)C (single isomer, unassigned) [Compound 134d] | 0.425 | > 1000 | – |
| CC(=O)N1CCC([C@H](C)N2CC(Cc3cn(-c4ccc(F)cc4C(=O)N(C)C(C)C)c4cncc(C)c34)C2)CC1 (single isomer, unassigned) [Compound 151] | 3.77 | – | 1350 |
| COC[C@@H](C1CCCCO1)N1CC[C@@H](Cc2cn(-c3ccc(F)cc3C(=O)N(C)C(C)C)c3cncc(C)c23)C1 (single isomer, unassigned) [Compound 165a] | 0.173 | – | ~180 |
| Cc1cncc2c1c(C[C@@H]1CCN([C@@H](C)C3CCOCC3)C1)cn2-c1ccc(F)cc1[S@](=N)(=O)C(C)C (single isomer, unassigned) [Compound 180b] | 7.29 | – | ~2810 |
| Cc1cncc2c1c(C[C@H]1CCN([C@@H](C)C3CCOCC3)C1)cn2-c1ccc(F)cc1[S@](=N)(=O)C(C)C (single isomer, unassigned) [Compound 181b] | 4.58 | – | 1910 |
| Cc1cncc2c1c(C[C@@H]1CCN([C@H](C)C3CCOCC3)C1)cn2-c1ccc(F)cc1[S@@](=N)(=O)C(C)C (single isomer, unassigned) [Compound 182a] | 0.462 | – | 287 |
| Cc1cncc2c1c(CC1CN([C@H](C)C3CCS(=O)(=O)CC3)C1)cn2-c1ccc(F)cc1C(=O)N(C)C(C)C (single isomer, unassigned) [Compound 213a] | 0.567 | – | 1150 |
| CC(=O)N1CCC(CN2CC[C@@H](Cc3cn(-c4ccc(F)cc4[S@@]4(=O)=NCCC4)c4cncc(C)c34)C2)CC1 (single isomer, unassigned) [Compound 214a] | 1.29 | – | ~605 |
| CC(=O)N1CCC([C@@H](C)N2CC[C@@H](Cc3cn(-c4ccc(F)cc4[S@](=N)(=O)C(C)C)c4cncc(C)c34)C2)CC1 (single isomer, unassigned) [Compound 230a] | 0.053 | – | 77 |
| CC(=O)N1CCC([C@H](C)N2CC[C@@H](Cc3cn(-c4ccc(F)cc4[S@](=N)(=O)C(C)C)c4cncc(C)c34)C2)CC1 (single isomer, unassigned) [Compound 230b] | 5.45 | – | > 1000 |
| CC(=O)N1CCC([C@@H](C)N2CC[C@H](Cc3cn(-c4ccc(F)cc4[S@](=N)(=O)C(C)C)c4cncc(C)c34)C2)CC1 (single isomer, unassigned) [Compound 232a] | 0.624 | – | ~448 |

More lines, in order of falling IC50 [1], values ahead:

| IC50 [1] [nM] | IC50 (MEIS1 mRNA expression) [nM] | IC50 (MEIS1 mRNA expression; Homo sapiens, MOLM-14, 48 h) [nM] | Compound |
| --- | --- | --- | --- |
| 30.7 | – | > 1000 | CC(=O)N1CCC(CN2CC[C@H](Cc3cn(-c4ccc(F)cc4[S@@]4(=O)=NCCC4)c4cncc(C)c34)C2)CC1 (single isomer, unassigned) [Compound 224a] |
| 11.7 | – | ~7280 | CC(=O)N1CCC(CN2CC[C@@H](Cc3cn(-c4ccc(F)cc4[S@]4(=O)=NCCC4)c4cncc(C)c34)C2)CC1 (single isomer, unassigned) [Compound 214b] |
| 6.94 | – | > 1000 | CC(=O)N1CCC([C@H](C)N2CC[C@@H](Cc3cn(-c4ccc(F)cc4[S@@](=N)(=O)C(C)C)c4cncc(C)c34)C2)CC1 (single isomer, unassigned) [Compound 231b] |
| 4.04 | – | > 1000 | CC(=O)N1CCC([C@H](C)N2CC[C@H](Cc3cn(-c4ccc(F)cc4[S@](=N)(=O)C(C)C)c4cncc(C)c34)C2)CC1 (single isomer, unassigned) [Compound 232b] |
| 3.1 | – | 1770 | Cc1cncc2c1c(C[C@@H]1CCN([C@@H](C)C3CCOCC3)C1)cn2-c1ccc(F)cc1[S@@](=N)(=O)C(C)C (single isomer, unassigned) [Compound 182b] |
| 2.77 | – | > 1000 | CC(=O)N1CCC(CN2CC[C@H](Cc3cn(-c4ccc(F)cc4[S@]4(=O)=NCCC4)c4cncc(C)c34)C2)CC1 (single isomer, unassigned) [Compound 224b] |
| 2.61 | – | ~2040 | Cc1cncc2c1c(C[C@H]1CCN([C@@H](C)C3CCOCC3)C1)cn2-c1ccc(F)cc1[S@@](=N)(=O)C(C)C (single isomer, unassigned) [Compound 183b] |
| 1.63 | – | ~2300 | Cc1cncc2c1c(CC1CN([C@@H](C)C3CCS(=O)(=O)CC3)C1)cn2-c1ccc(F)cc1C(=O)N(C)C(C)C (single isomer, unassigned) [Compound 213b] |
| 0.932 | – | 504 | Cc1cncc2c1c(CC1CCN(C[C@@H]3CNC(=O)C3)CC1)cn2-c1ccc(F)cc1C(=O)N(C)C(C)C (single isomer, unassigned) [Compound 186b] |
| 0.906 | > 1000 | – | CC(=O)NC(C)CN1CCC(Cc2cn(-c3ccc(F)cc3C(=O)N(C)C(C)C)c3cncc(C)c23)C1 (single isomer, unassigned) [Compound 119a] |
| 0.447 | – | 419 | Cc1cncc2c1c(CC1CCN(CC3CNC(=O)C3)CC1)cn2-c1ccc(F)cc1C(=O)N(C)C(C)C (single isomer, unassigned) [Compound 186a] |
| 0.37 | – | 307 | Cc1cncc2c1c(C[C@H]1CCN([C@H](C)C3CCOCC3)C1)cn2-c1ccc(F)cc1[S@@](=N)(=O)C(C)C (single isomer, unassigned) [Compound 183a] |
| ~0.34 | 43 | – | CC(=O)N1CCC(N2CC[C@H](Cc3cn(-c4ccc(F)cc4C(=O)N(C)C(C)C)c4cncc(C)c34)C2)C(C)C1 (single isomer, unassigned) [Compound 137b] |
| 0.311 | – | 52 | CC(=O)N1CCC([C@@H](C)N2CC[C@@H](Cc3cn(-c4ccc(F)cc4[S@@](=N)(=O)C(C)C)c4cncc(C)c34)C2)CC1 (single isomer, unassigned) [Compound 231a] |
| 0.122 | – | ~810 | Cc1cncc2c1c(C[C@@H]1CCN([C@H]3CCNC(=O)CC3)C1)cn2-c1ccc(F)cc1C(=O)N(C)C(C)C (single isomer, unassigned) [Compound 139a] |
| 0.087 | – | 716 | Cc1cncc2c1c(C[C@@H]1CCN([C@@H]3CCNC(=O)CC3)C1)cn2-c1ccc(F)cc1C(=O)N(C)C(C)C (single isomer, unassigned) [Compound 139b] |
| 0.073 | – | ~105 | Cc1cncc2c1c(C[C@@H]1CCN(C[C@@H]3CCCCO3)C1)cn2-c1ccc(F)cc1C(=O)N(C)C(C)C (single isomer, unassigned) [Compound 147b] |
| ~0.056 | – | 7 | Cc1cncc2c1c(C[C@H]1CCN(CC3CCN(C(=O)C4CC4)CC3)C1)cn2-c1ccc(F)cc1C(=O)N(C)C(C)C (single isomer, unassigned) [Compound 135] |
| 0.049 | – | 13 | Cc1cncc2c1c(C[C@H]1CCN(CC3CCN(C(=O)C(C)C)CC3)C1)cn2-c1ccc(F)cc1C(=O)N(C)C(C)C (single isomer, unassigned) [Compound 121] |
| 0.032 | 86 | – | Cc1cncc2c1c(CC1CNC(CC3CCOCC3)C1)cn2-c1ccc(F)cc1C(=O)N(C)C(C)C (single isomer, unassigned) [Compound 134a] |
